What was measured:
C. parvum = assay: DNA replication assay (EdU incorporation); assay type: cell-based, Cryptosporidium parvum; settings: compound at EC90; for DNA Synthesis Assay: Mean % Inhibition of EdU-labeling (normalized to parasite numbers), Average: average of replicates; for DNA Synthesis Assay: Mean % Inhibition of EdU-labeling (normalized to parasite numbers), Replicate 1: single replicate 1; for DNA Synthesis Assay: Mean % Inhibition of EdU-labeling (normalized to parasite numbers), Replicate 2: single replicate 2; for DNA Synthesis Assay: Mean % Inhibition of EdU-labeling (normalized to parasite numbers), Replicate 3: single replicate 3; for DNA synthesis: yes/no grouping by phenotypic assay result
Text: Following cell invasion, Cryptosporidium trophozoites grow and multiply to give rise to multinucleated type I meronts (Fig. 3a). The thymidine analog 5-ethynyl-2′-deoxyuridine (EdU) is efficiently incorporated into newly synthesized DNA, and can be detected using click chemistry. We used EdU to measure parasite intracellular DNA replication, as a surrogate for the more complex phenotype of intracellular growth and division. The approach for differentially labeling newly synthesized parasite DNA compared to host cell DNA was to take advantage of the fact that C. parvum replicates more quickly than the nearly confluent host cells. Thus, by adding EdU shortly before egress, it was possible to preferentially label replicating parasites (Fig. 3b, c). DNA staining with Hoechst labeled all of the host and parasite DNA, making it challenging to visualize and quantify parasite DNA. A simple DNA stain would also not distinguish pre-existing DNA from newly synthesized DNA (Fig. 3c). In contrast, EdU labeling only occurred with incorporation into newly synthesized DNA. Incorporated EdU was then easily stained for immunofluorescence and labeled parasites were quantified using high-content microscopy and an NIH ImageJ macro (Fig. 3c, DMSO condition). The […] hydroxyurea (10 mM), a known inhibitor of DNA replication, was used as a positive control for assay validation. […] Compounds with activity in this assay cannot be concluded to specifically target DNA replication, which is a complex phenotype.
Confluent HCT-8 cell monolayers in glass bottom plates were infected with C. parvum, and compounds were added at EC90 following invasion. At 9 h post-infection, 10 µM EdU was added, followed by incubation for another 2 h, and then washing, fixing, and staining for microscopy. […] 40 × dry objective (NA = 0.7); scale = 5 µm. Arrows indicate selected parasites with EdU-labeled DNA. d Quantification of EdU incorporation. […] Data are mean and SD of 2–5 biological replicates.
After incubation of cells with EdU for 2 h, cells were washed 3 times with PBS-D-gal and then fixed with PBS containing 4% PFA. Cells were then permeabilized and stained for EdU using the Click-iT® assay kit (Thermo Fisher Scientific, catalog# C10340) as per the manufacturer’s instructions. Cells were then imaged by focusing on parasites (note that the host cell nuclei are in a different focal plane) using a 40 × dry objective (0.7 NA) and EdU, and lectin numbers quantified using ImageJ software and the custom macro in Supplementary Method 1.

[1] = system: C. parvum DMC1 expression; assay: Sexual differentiation assay (DMC1 expression); assay type: cell-based, Cryptosporidium parvum; settings: compound at asexual EC90, 48-72 h; for Asexual to sexual differentiation: Mean % DMC1 inhibition (normalized to host nuclei), Average: average of replicates; for Asexual to sexual differentiation: Mean % DMC1 inhibition (normalized to host nuclei), Replicate 1a: single replicate 1; for Asexual to sexual differentiation: Mean % DMC1 inhibition (normalized to host nuclei), Replicate 2a: single replicate 2; for Asexual to sexual differentiation: Mean % DMC1 inhibition (normalized to host nuclei), Replicate 3a: single replicate 3
Text: We utilized DMC1 as a marker of C. parvum sexual development, and used the anti-DMC1 monoclonal antibody to develop a moderate-throughput high-content microscopy assay for characterizing anticryptosporidial compounds (Fig. 6a). […] Therefore, in order to enable numerical comparison of the ability of compounds to block sexual development with moderate throughput, we adopted a strategy of reporting the percent inhibition of DMC1 expression by the previously determined EC90 of each compound in the standard asexual development assay (Fig. 6c and Supplementary Table 2).
Fig. 6 Assay to measure asexual-to-sexual-stage conversion. a Schematic of the experimental approach. […] For b and c the mean and SD combined from at least two biological replicates with four technical replicates per experiment are shown. […] At given time points post-infection, infected cells were washed 3 times with PBS containing 111 mM of D-galactose, fixed for 15 min at room temperature with 4% paraformaldehyde in PBS, and permeabilized with 0.25% triton X-100 in PBS for 10 min at 37 °C. Cells were then washed 3 times with PBS and blocked at least overnight at 4 °C with 1% BSA in PBS (blocking buffer). Cells were stained with monoclonal antibody (1H10G7), either neat culture supernatant or 12.8 µg/mL of purified IgG in blocking buffer for 1 h at 37 °C, followed by 2 washes with PBS. Cells were then co-stained with a 1:500 dilution (4 µg/mL) of Alexa Fluor 568 goat anti-mouse IgG (Invitrogen, catalog# A-11004) and 1.33 µg/mL fluorescein-labeled Vicia villosa lectin (Vector Laboratories, catalog# FL-1231) diluted in blocking buffer for 1 h at 37 °C. Stains were then removed and 0.09 mM Hoechst 33258 (AnaSpec, catalog# AS-83219) also diluted in blocking buffer was added for another 15 min at 37 °C, followed by 2 PBS washes and imaging on a Nikon Eclipse Ti2000 epifluorescence microscope run with NIS-Elements Advanced Research software (Nikon, USA) and equipped with an EXi blue fluorescent microscopy camera (QImaging, Canada). For enumerating parasites, tiled 2 × 2 images with 15% overlapping edges were taken using a 40 × dry objective (0.7 NA), and for finer details, Z stack images were acquired using a 60 × oil objective (1.4 NA). Lectin positive cells in focus were first counted, followed by DMC1.
For compound dose-response studies, the same assay was performed in 384-well plates and imaged using a 20 × dry objective (NA = 0.45). Tiled 4 × 4 to 6 × 6 images were taken. Images were analyzed using ImageJ software and the custom macro provided in Supplementary Method 2.

SMILES | DNA Synthesis Assay: Mean % Inhibition of EdU-labeling (normalized to parasite numbers), Average (C. parvum) | DNA Synthesis Assay: Mean % Inhibition of EdU-labeling (normalized to parasite numbers), Replicate 1 (C. parvum) | DNA Synthesis Assay: Mean % Inhibition of EdU-labeling (normalized to parasite numbers), Replicate 2 (C. parvum) | DNA Synthesis Assay: Mean % Inhibition of EdU-labeling (normalized to parasite numbers), Replicate 3 (C. parvum) | DNA synthesis (C. parvum) | Asexual to sexual differentiation: Mean % DMC1 inhibition (normalized to host nuclei), Average [1] | Asexual to sexual differentiation: Mean % DMC1 inhibition (normalized to host nuclei), Replicate 1a [1] | Asexual to sexual differentiation: Mean % DMC1 inhibition (normalized to host nuclei), Replicate 2a [1] | Asexual to sexual differentiation: Mean % DMC1 inhibition (normalized to host nuclei), Replicate 3a [1] | Asexual to sexual differentiation: Mean % DMC1 inhibition (normalized to host nuclei), Replicate 4a ([1]; single replicate 4) | DNA Synthesis Assay: Mean % Inhibition of EdU-labeling (normalized to parasite numbers), Replicate 4 (C. parvum; single replicate 4) | DNA Synthesis Assay: Mean % Inhibition of EdU-labeling (normalized to parasite numbers), Replicate 5 (C. parvum; single replicate 5)
c1ccc(CNc2nc(NC3CCCC3)nc3ccccc23)cc1 [B-5] | -9.25% | -17.04% | 19.85% | -30.57% | no | 7.84% | 11.99% | -2.17% | 13.72% | – | – | –
COc1ccc(Nc2nc(NCc3ccccc3Cl)c3ccccc3n2)cc1Cl [B-13] | -3.46% | 5.94% | -6.60% | -9.73% | no | 11.26% | 30.33% | -7.82% | – | – | – | –
c1ccc(CNc2nc(NCc3ccccc3)c3ccccc3n2)cc1 [B-23] | 1.59% | -16.14% | 17.17% | 3.74% | no | -6.40% | -17.01% | 2.19% | -4.38% | – | – | –
CCOc1ccc2cc(-c3nn(CC4CCN(C)CC4)c4ncnc(N)c34)ccc2c1 [BKI-1294] | -5.73% | -9.55% | -1.92% | – | – | 45.56% | 58.94% | 32.18% | – | – | – | –
CCOc1ccc2cc(-c3nn(CC4CCN(C)CC4)c4ncnc(N)c34)ccc2n1 [BKI-1369] | 16.97% | 25.00% | 8.94% | – | – | 41.93% | -4.30% | 59.32% | 70.76% | – | – | –
COc1ccc(NC(=O)N2CCCCN3C(CN(C)C)C(c4ccc(C#Cc5ccccc5)cc4)C3C2)cc1 (centres unmarked) [BRD7929] | 93.39% | 85.08% | 95.72% | 99.38% | – | 63.11% | 38.81% | 78.93% | 84.43% | 50.27% | – | –
Cc1cccc(-n2ncc3c(O)nc(-n4nc(C)cc4NC(=O)c4cc5ccccc5o4)nc32)c1 [C-1] | 91.44% | 100% | 100% | 74.32% | – | 30.35% | 26.21% | 37.12% | 27.73% | – | – | –
Cc1cccc(-n2ncc3c(=O)[nH]c(-n4nc(C)cc4NC(=O)C4CC4)nc32)c1 [C-4] | 99.18% | 98.37% | 100.00% | – | – | 64.12% | 60.65% | 67.59% | – | – | – | –
Cc1cccc(-n2ncc3c(=O)[nH]c(-n4nc(C)cc4NC(=O)C4CCCC4)nc32)c1 [C-5] | 98.17% | 96.33% | 100.00% | – | – | 52.89% | 39.80% | 65.99% | – | – | – | –
C[C@H]1CCC[C@H](C[C@H]2Cc3cc(O)cc(O)c3C(=O)O2)O1 [Cladosporin] | 93.15% | 89.75% | 94.02% | 89.08% | – | 94.16% | 91.92% | 96.40% | – | – | 93.50% | 99.40%

Source: publication PMC6478823, “A suite of phenotypic assays to ensure pipeline diversity when prioritizing drug-like Cryptosporidium growth inhibitors” (Nature Communications, 2019)
